Test results published in article PMC4335020, “Single Oral Dose Pharmacokinetics of Decursin and Decursinol Angelate in Healthy Adult Men and Women” (PLoS ONE, 2015).
Like-named read-outs stand apart in the source and are kept apart here.

Test: Single oral dose human plasma pharmacokinetics of D, DA and DOH after Cogni.Q
Assay type: in vivo
Conditions: for Tmax / AUC(0-t) / Cmax / half-life: human, plasma
From the text: Ten healthy male and 10 female subjects were recruited by public announcement in Amarillo, TX, from January 2013 to April 2013 (see Fig. 1 CONSORT diagram). The sample size for each gender was chosen without power calculation due to the lack of prior knowledge of PK parameter variance in humans. After receiving informed consent verbally and in writing, the health status of each candidate was confirmed by health questionnaire, plasma biochemistry (hepatic and renal functions), complete blood cell count (CBC), and a physical examination by a participating academic physician. Subjects with diabetes, or pregnant, perinatal and breastfeeding women were excluded. For the 48 hours preceding study visit until the final blood draw, all subjects were instructed to avoid taking any prescription or nonprescription drugs, vitamins, and herbal/dietary supplements. Each subject was compensated for participating in the study per TTUHSC IRB approved rate.
Eligible subjects arrived at our clinical facility at 0700 (7:00 am) on the test day after a fast beginning at 2200 (10:00 pm) the previous night. After a brief review of vital signs, the nurse placed an intravenous (IV) line with saline drip in one arm of each subject. A baseline pre-dose (hour 0) blood sample was drawn through the IV line; after that subjects swallowed four Cogni.Q vegicaps with 240 mL of water at hour 0 under direct supervision. Subjects stayed at the clinical facility in their room for the next 12 hours, returning at 24 and 48 hours. Blood was drawn at baseline (hour 0) and at 0.5, 1, 2, 3, 4, 6, 8, 12, 24 and 48 hours after dosing into Vacutainer Blood Collection Tube (Becton-Dickinson, Franklin Lakes, NJ. Product Number: 367874, Sodium heparin was used as anti-coagulant). Water was allowed as desired except for within the first hour after Cogni.Q consumption. All subjects received standardized meals at post-dose hours 4.5 and 9.5 but no food was allowed for at least the first 4 hours post-dose.
Plasma was prepared by centrifuging the heparinized blood at 1000 g for 15 minutes at room temperature. Urine samples (40mL) were collected within time spans of 0–4, 4–8, 8–12 and 12–24 hours (total volume of urine was recorded). All plasma and urine samples were put on dry ice immediately and then stored at -80°C freezer until analysis.
Plasma samples were extracted with a validated solid supported liquid extraction (SLE) method facilitated with a positive pressure manifold (Biotage, Charlotte, NC). Briefly, 100 μL of plasma sample was spiked with 5 μL of 10 ng/μL prednisolone (IS), diluted with 200 μL of LC-MS grade water, mixed and loaded onto ISOLUTE SLE+ 400 μL Array Well cartridges (Biotage, Charlotte, NC). A pulse of minimum positive pressure was applied to facilitate the samples absorption into the cartridges. After the samples were allowed to absorb for 5 min, the compounds were eluted with 2×500 μL tert-butyl methyl ether. The eluent was dried in a Speedvac and the resulting residue was reconstituted in 50 μL of methanol for UHPLC-MS/MS analysis.
Eight-point calibration curves were constructed for D, DA and DOH, at concentrations of 0.1, 0.5, 1, 5, 10, 20, 50 and 100 μg/L for D and DA, and at concentrations of 1, 5, 10, 50, 100, 200, 500 and 1000 μg/L for DOH, respectively. The linear range was 0.1–100 μg/L (0.3–300 nmol/L), 0.1–100 μg/L (0.3–300 nmol/L) and 1–1000 μg/L (4–4000 nmol/L) for D, DA and DOH, respectively. The inter- and intra-assay CV were lower than 6.5% and the accuracy was between 90–105%. Calibration curve was run for each batch of samples analyzed. The mean calibration curve correlation coefficient (r) for D, DA and DOH was 0.999, 0.999 and 0.998, respectively (data from 7–10 calibration curves). In addition, 70% of the plasma samples were extracted and analyzed twice, the data from two replicate analyses were nearly identical and combined for final data analyses and presentation. […]

Q: What does the source list for C/C=C(/C)C(=O)O[C@H]1Cc2cc3ccc(=O)oc3cc2OC1(C)C [DA, decursinol angelate]?
A: Tmax (oral, 4 Cogni.Q vegicaps, subject S9 (158 lb), read-out: Tmax): 1 h; AUC(0-t) (oral, 4 Cogni.Q vegicaps, subject S10 (185 lb), read-out: AUC0-48h): 115 nmol·h/L; Cmax (oral, 4 Cogni.Q vegicaps, subject S10 (185 lb), read-out: Cmax): 7 nM; half-life (oral, 4 Cogni.Q vegicaps, subject S10 (185 lb), read-out: Terminal t1/2, h (converted)): 13.3 h; Tmax (oral, 4 Cogni.Q vegicaps, subject S10 (185 lb), read-out: Tmax): 2 h; AUC(0-t) (oral, 4 Cogni.Q vegicaps, subject S11 (178 lb), read-out: AUC0-48h): 168 nmol·h/L; Cmax (oral, 4 Cogni.Q vegicaps, subject S11 (178 lb), read-out: Cmax): 29.7 nM; half-life (oral, 4 Cogni.Q vegicaps, subject S11 (178 lb), read-out: Terminal t1/2, h (converted)): 14.2 h; Tmax (oral, 4 Cogni.Q vegicaps, subject S11 (178 lb), read-out: Tmax): 1 h; AUC(0-t) (oral, 4 Cogni.Q vegicaps, subject S12 (169 lb), read-out: AUC0-48h): 150 nmol·h/L; Cmax (oral, 4 Cogni.Q vegicaps, subject S12 (169 lb), read-out: Cmax): 16.8 nM; half-life (oral, 4 Cogni.Q vegicaps, subject S12 (169 lb), read-out: Terminal t1/2, h (converted)): 40.2 h; Tmax (oral, 4 Cogni.Q vegicaps, subject S12 (169 lb), read-out: Tmax): 2 h; AUC(0-t) (oral, 4 Cogni.Q vegicaps, subject S13 (192 lb), read-out: AUC0-48h): 106 nmol·h/L; Cmax (oral, 4 Cogni.Q vegicaps, subject S13 (192 lb), read-out: Cmax): 11.2 nM; half-life (oral, 4 Cogni.Q vegicaps, subject S13 (192 lb), read-out: Terminal t1/2, h (converted)): 12.7 h; Tmax (oral, 4 Cogni.Q vegicaps, subject S13 (192 lb), read-out: Tmax): 1 h; AUC(0-t) (oral, 4 Cogni.Q vegicaps, subject S14 (200 lb), read-out: AUC0-48h): 96.4 nmol·h/L; Cmax (oral, 4 Cogni.Q vegicaps, subject S14 (200 lb), read-out: Cmax): 24.4 nM; half-life (oral, 4 Cogni.Q vegicaps, subject S14 (200 lb), read-out: Terminal t1/2, h (converted)): 12.6 h; Tmax (oral, 4 Cogni.Q vegicaps, subject S14 (200 lb), read-out: Tmax): 1 h; AUC(0-t) (oral, 4 Cogni.Q vegicaps, subject S15 (177 lb), read-out: AUC0-48h): 512 nmol·h/L; Cmax (oral, 4 Cogni.Q vegicaps, subject S15 (177 lb), read-out: Cmax): 196 nM; half-life (oral, 4 Cogni.Q vegicaps, subject S15 (177 lb), read-out: Terminal t1/2, h (converted)): 18.7 h; Tmax (oral, 4 Cogni.Q vegicaps, subject S15 (177 lb), read-out: Tmax): 1 h; Tmax (oral, 4 Cogni.Q vegicaps, subject S16 (175 lb), read-out: Tmax): 3 h; AUC(0-t) (oral, 4 Cogni.Q vegicaps, subject S17 (147 lb), read-out: AUC0-48h): 593 nmol·h/L; Cmax (oral, 4 Cogni.Q vegicaps, subject S17 (147 lb), read-out: Cmax): 104 nM; half-life (oral, 4 Cogni.Q vegicaps, subject S17 (147 lb), read-out: Terminal t1/2, h (converted)): 24.2 h; Tmax (oral, 4 Cogni.Q vegicaps, subject S17 (147 lb), read-out: Tmax): 2 h; half-life (oral, 4 Cogni.Q vegicaps, subject S18 (180 lb), outlier, excluded from means, read-out: Terminal t1/2, h (converted)): 55.7 h; AUC(0-t) (oral, 4 Cogni.Q vegicaps, subject S18 (180 lb), read-out: AUC0-48h): 48.1 nmol·h/L; Cmax (oral, 4 Cogni.Q vegicaps, subject S18 (180 lb), read-out: Cmax): 3 nM; Tmax (oral, 4 Cogni.Q vegicaps, subject S18 (180 lb), read-out: Tmax): 4 h; AUC(0-t) (oral, 4 Cogni.Q vegicaps, subject S19 (130 lb), read-out: AUC0-48h): 87.7 nmol·h/L; Cmax (oral, 4 Cogni.Q vegicaps, subject S19 (130 lb), read-out: Cmax): 6.9 nM; half-life (oral, 4 Cogni.Q vegicaps, subject S19 (130 lb), read-out: Terminal t1/2, h (converted)): 16 h; Tmax (oral, 4 Cogni.Q vegicaps, subject S19 (130 lb), read-out: Tmax): 4 h; half-life (oral, subject S16 (175 lb), outlier, excluded from means, read-out: Terminal t1/2, h (converted)): 190 h; AUC(0-t) (oral, subject S16 (175 lb), read-out: AUC0-48h): 68.4 nmol·h/L; Cmax (oral, subject S16 (175 lb), read-out: Cmax): 4.3 nM; AUC(0-t) (oral, subject S20 (200 lb), read-out: AUC0-48h): 170 nmol·h/L; Cmax (oral, subject S20 (200 lb), read-out: Cmax): 17.2 nM; half-life (oral, subject S20 (200 lb), read-out: Terminal t1/2, h (converted)): 18.8 h; Tmax (oral, subject S20 (200 lb), read-out: Tmax): 2 h; conversion of D/DA to DOH (humans, from plasma AUC0–48h values): > 98%; AUC(0-t) (male, oral, 4 Cogni.Q vegicaps, Men n=10 (S1 Table), read-out: AUC0-48h, Mean): 327 nmol·h/L; Cmax (male, oral, 4 Cogni.Q vegicaps, Men n=10 (S1 Table), read-out: Cmax, nM, Mean): 52.2 nM; Tmax (male, oral, 4 Cogni.Q vegicaps, Men n=10 (S1 Table), read-out: Tmax, h, Mean): 2.1 h; half-life (male, oral, Men, outliers excluded (S1 Table), read-out: Terminal t1/2, h, Mean (converted)): 14.9 h; AUC(0-t) (male, po, Men N = 10, single oral dose Cogni.Q, read-out: AUC0–48h, h.nmol/L Mean (SD)): 327 nmol·h/L; Cmax (male, po, Men N = 10, single oral dose Cogni.Q, read-out: Cmax, nmol/L, Mean (SD)): 52.2 nM; Tmax (male, po, Men N = 10, single oral dose Cogni.Q, read-out: Tmax, h, Mean (SD)): 2.1 h; half-life (male, po, Men, outlier subjects excluded, single oral dose Cogni.Q, read-out: T1/2, h, terminal Mean (SD) (converted)): 14.9 h; difference in C max among subjects in the same gender (same gender): more than 20 fold
